Assay results: US20230129137A1, “USE OF TT-10-LOADED NANOPARTICLES FOR CARDIAC REPAIR” (THE UAB RESEARCH FOUNDATION, priority 2021, published 2023)
Entries after “also recorded” stand apart in the source; their conditions may differ.

How the values were obtained:
mouse MI = conditions: intraperitoneal injections of TT-10, mice after MI; cited from earlier work
hiPSC-CMs [1] = test: apoptosis of hiPSC-CMs by TUNEL staining; type: cell-based, human; conditions: 10 μM TT-10
Description: (§1) FIGS. 2A-2B show TT-10 enhanced survival and nuclear Yap levels in cultured hiPSC-CMs. (FIG. 2A) Apoptosis was evaluated via TUNEL staining and quantified as the percentage of TUNEL-positive cells. (FIG. 2B) hiPSC-CMs were immunofluorescently costained for Yap, and the proportion of cells with Yap-positive nuclei is presented as a percentage. Scale bar: 20 μm. All experiments were repeated 5 times. *P<0.01, Student's t test.
(§2) The effect of TT-10 (FIG. 1A) on cardiomyocyte cell cycle activity and proliferation was determined by culturing human induced pluripotent stem cell-derived cardiomyocytes (hiPSC-CMs) in varying concentrations of TT-10 (0, 2 μM, 10 μM, 20 μM or 100 μM) for 48 hours and then evaluating the presence of markers for cell proliferation (Ki67 expression, FIG. 1B), S phase (BrdU incorporation, FIG. 1C), and M phase (histone 3 phosphorylation [PH3], FIG. 1D) of the cell cycle and for cytokinesis (Aurora B, FIG. 1E). […] The effect of TT-10 on YAP pathway activity was also evaluated via Western blot (FIG. 7): total Yap levels in hiPSC-CMs treated with or without TT-10 were similar, but phosphorylated Yap (p-Yap) was less abundant in TT-10-treated cells.
TUNEL. TUNEL staining was performed with an in situ cell death detection kit (Roche). […] Apoptosis was quantified as the proportion of cells that were TUNEL positive.

cardiomyocytes = conditions: cited from earlier work
YAP signaling pathway = test: YAP and phosphorylated YAP abundance by Western blot in hiPSC-CMs; type: cell-based, human; conditions: 10 μM TT-10, 48 hours, with vs without TT-10
Description: as §2
Western blot. hiPSC-CMs were lysed with M-PER Mammalian Protein Extraction Reagent (Thermo Fisher Scientific) supplemented with Halt Protease and Phosphatase Inhibitor Cocktail (Thermo Fisher Scientific). Extracted protein was quantified by BCA protein assay kit (Thermo Fisher Scientific) and denatured by heating at 95° C. for 10 minutes. Equal quantity of protein were loaded and separated by 4%-15% precast SDS-PAGE gels (Bio-Rad), and then transferred onto a polyvinylidene difluoride membrane (Bio-Rad). […] Protein signals were imaged with a Bio-Rad ChemiDoc System and analyzed by ImageJ. […]

Yap = test: nuclear Yap in hiPSC-CMs (immunofluorescence); type: cell-based, human; conditions: 10 μM TT-10
Description: as §1, §2
Immunofluorescence. […] After staining, analyses were conducted with a fluorescence microscope.

hiPSC-CMs [2] = test: cell cycle activity and proliferation markers in cultured hiPSC-CMs (immunofluorescence); type: cell-based, human; conditions: TT-10 0, 2, 10, 20 or 100 μM, 48 hours
Description: FIGS. 1A-1E show TT-10 increased cell cycle activity and proliferation in cultured human pluripotent stem sell derived cardiomyocytes (hiPSC-CMs). (FIG. 1A) TT-10 (C11H10FN3OS2; molecular weight, 283.34 Da) contains 4 C═C, 1 C═N, and 1 C═O double bond. Maximum UV/Vis absorbance is approximately 200 nm. (FIGS. 1B-1E) hiPSC-CMs were cultured under standard conditions (—) or treated with varying concentrations of TT-10 (2 μM, 10 μM, 20 μM, or 100 μM) for 48 hours and immunofluorescently stained for the human isoform of cardiac troponin T (hcTnT). Nuclei were identified by staining with 4′,6′-diamidinio-2-phenylindole (DAPI) or with DAPI and Nkx2.5 antibodies. (FIG. 1B) Proliferation was evaluated via immunofluorescence costaining for antigen KI 67 (Ki67) and quantified as the percentage of Ki67-positive cells. (FIG. 1C) hiPSC-CMs in the S phase of the cell cycle were identified via immunofluorescence costaining for bromodeoxyuridine (BrdU) incorporation and quantified as the percentage of BrdU-positive cells. (FIG. 1D) hiPSC-CMs in the M phase of the cell cycle were identified via immunofluorescence costaining for histone 3 phosphorylation (PH3) and quantified as the percentage of PH3-positive cells. (FIG. 1E) hiPSC-CMs undergoing cytokinesis were identified via immunofluorescence costaining for Aurora B (AuB) and quantified as the percentage of AuB-positive cells. Scale bar: 20 μm. All experiments were repeated 5 times. […], 1-way ANOVA with Tukey's correction.
FIGS. 8A-8B show TT-10-NPs promoted proliferation in cultured hiPSC-CMs. hiPSC-CMs were cultured for 48 hours with or without 1 mg/mL coumarin-6-loaded TT-10-NPs (green); then, the cells were immunofluorescently stained for the human isoform of cardiac troponin I (hcTnI, gray), and nuclei were identified via DAPI staining (blue). Internalized NPs are identified with an arrow. Scale bar: 20 μm. (FIG. 8A) Proliferation was evaluated via immunofluorescence costaining for Ki67 and quantified as the percentage of Ki67-positive cells. (FIG. 8B) hiPSC-CMs in the M-phase of the cell cycle were identified via immunofluorescence costaining for PH3 and quantified as the percentage of PH3-positive cells. *P<0.01, Student's t-test; n=5 experiments.
The effect of TT-10 (FIG. 1A) on cardiomyocyte cell cycle activity and proliferation was determined by culturing human induced pluripotent stem cell-derived cardiomyocytes (hiPSC-CMs) in varying concentrations of TT-10 (0, 2 μM, 10 μM, 20 μM or 100 μM) for 48 hours and then evaluating the presence of markers for cell proliferation (Ki67 expression, FIG. 1B), S phase (BrdU incorporation, FIG. 1C), and M phase (histone 3 phosphorylation [PH3], FIG. 1D) of the cell cycle and for cytokinesis (Aurora B, FIG. 1E). […]

C=CCNc1nc(N)c(C(=O)c2ccc(F)s2)s1 [TT-10, (2-(allylamino)-4-aminothiazol-5-yl)(5-fluorothiophen-2-yl)methanone]
cardiac function at later time points (mouse MI): did not prevent progressive declines
cardiomyocyte cell cycle activity (mouse MI): promoted
infarct size (mouse MI): declines in infarct size; also recorded: reduced
measures of cardiac function vs delivery vehicle (mouse MI): significantly better
hiPSC-CM apoptosis (TUNEL staining) (hiPSC-CMs [1]): significantly reduced
cardiomyocyte survival and proliferation (cardiomyocytes): promoted
phosphorylated Yap (p-Yap) abundance (Western blot) (YAP signaling pathway): less abundant
total Yap levels (Western blot) (YAP signaling pathway): similar
proportion of hiPSC-CMs with Yap-positive nuclei (Yap): significantly increased
proportion of cells displaying Aurora B (cytokinesis) (hiPSC-CMs [2]): peaked at 10 to 20 μM TT-10
proportion of cells displaying BrdU incorporation (S phase) (hiPSC-CMs [2]): peaked at 10 to 20 μM TT-10
proportion of cells displaying Ki67 (cell proliferation) (hiPSC-CMs [2]): peaked at 10 to 20 μM TT-10
proportion of cells displaying histone 3 phosphorylation PH3 (M phase) (hiPSC-CMs [2]): peaked at 10 to 20 μM TT-10
